Series [1] is described as follows: Cytotoxicity in mock-infected MT4 CMV-EGFP cells (GFP fluorescence). The following applies: human, 50% cytotoxic concentration as negative log. The series is classed as cell-based. From the text: Analogously, MT4 cells are engineered with GFP and the constitutional cytomegalovirus (CMV) promotor. This cell line is designated MT4 CMV-EGFP, and can be used for the in vitro evaluation of cytotoxicity of investigational compounds. In this cell line, GFP levels are comparably to those of infected MT4 LTR-EGFP cells. Cytotoxic investigational compounds reduce GFP levels of mock-infected MT4 CMV-EGFP cells.
(§1) Effective concentration values such as 50% effective concentration (EC50) can be determined and are usually expressed in μM. An EC50 value is defined as the concentration of test compound that reduces the fluorescence of HIV-infected cells by 50%. The 50% cytotoxic concentration (CC50 in μM) is defined as the concentration of test compound that reduces fluorescence of the mock-infected cells by 50%. The ratio of CC50 to EC50 is defined as the selectivity index (SI) and is an indication of the selectivity of the anti-HIV activity of the inhibitor. The ultimate monitoring of HIV-1 infection and cytotoxicity is done using a scanning microscope. Image analysis allows very sensitive detection of viral infection. Measurements are done before cell necrosis, which usually takes place about five days after infection, in particular measurements are performed three days after infection.

The test system of series [2] is wild-type HIV-IIIB strain. Description: Anti-viral activity in cellular assay, MT4 LTR-EGFP cells (GFP fluorescence). The note with it: Human immunodeficiency virus 1, 72 h, pEC50 = -log10(EC50), measured three days after infection. The series is classed as cell-based, HIV-1. As for the experimental part:
The compounds of the present invention were tested for anti-viral activity in a cellular assay, which was performed according to the following procedure.
The human T-cell line MT4 is engineered with Green Fluorescent Protein (GFP) and an HIV-specific promoter, HIV-1 long terminal repeat (LTR). This cell line is designated MT4 LTR-EGFP, and can be used for the in vitro evaluation of anti-HIV activity of investigational compounds. In HIV-1 infected cells, the Tat protein is produced which upregulates the LTR promotor and finally leads to stimulation of the GFP reporter production, allowing to measure ongoing HIV-infection fluorometrically.
as §1
The following Table 6 lists pEC50 values against wild-type HIV-IIIB strain as well as pEC50 values for a selected number of compounds of the invention. A pEC50 value corresponds to −log10(EC50). Listed are compounds having a pEC50 value of at least 5.00.

Structures are written as SMILES. pEC50: −log10 of the molar value.

As for `CCc1ccc(-n2c(=O)c3ccccc3c3nc4ccccn4c32)cn1` [Compound 27, 6-(6-ethyl-pyridin-3-yl)-pyrido[2′,1′:2,3]imidazo[4,5-c]-isoquinolin-5(6H)-one], half-maximal cytotoxicity in series [1] (CC50 at 3 days) was put at 26.3 µM. For the same compound, in series [2], the pEC50 was 5.24.

Compound `CCNCCNc1ccc2nc3c4ccccc4c(=O)n(-c4ccc([N+](=O)[O-])cc4)c3n2n1` [Compound 128] gave a CC50 at 3 days in series [1] of 0.851 µM. Further, the pEC50 in series [2] was 7.51.

For `Cc1cccc2c(=O)n(-c3ccc([N+](=O)[O-])cc3)c3c(nc4ccc(O)cn43)c12` [Compound 110, 9-hydroxy-1-methyl-6-(4-nitrophenyl)-pyrido[2′,1′:2,3]imidazo[4,5-c]isoquinolin-5(6H)-one], the CC50 at 3 days in series [1] is 5.37 µM. The compound further gave a pEC50 in series [2] of 7.27.

In series [1], `O=c1c2ccccc2c2nc3ccc(OP(=O)(O)O)cn3c2n1-c1ccc(Cl)nc1` [Compound 77] showed a CC50 at 3 days of 25.7 µM. Further, the pEC50 in series [2] was 5.95.

The compound `O=c1c2ccccc2c2nc3ccc(O)cn3c2n1-c1ccc([N+](=O)[O-])cc1` [Compound 10, 9-hydroxy-6-(4-nitrophenyl)-pyrido[2′,1′:2,3]imidazo[4,5-c]isoquinolin-5(6H)-one] had a CC50 at 3 days in series [1] of more than 32.4 µM. The pEC50 in series [2] is 6.81.

In series [1], `Cc1ccc(-n2c(=O)c3ccccc3c3nc4ccccn4c32)cc1[N+](=O)[O-]` [Compound 22] showed a CC50 at 3 days of more than 32.4 µM. The pEC50 in series [2] is 5.54.

In turn, `O=c1c2ccccc2c2nc3ccc(OCCN4CCCC4)cn3c2n1-c1ccc([N+](=O)[O-])cc1` [Compound 78] had a half-maximal cytotoxic concentration (CC50) at 3 days in series [1] of more than 32.4 µM. Moreover, in series [2], the pEC50 is 5.52.

Usually CC50 stands for the concentration that lowers cell viability or growth by half. A low value points to harm at low concentration. What is called pEC50 is the EC50 on a negative log10 scale, so that one unit is a factor of ten. High values mean a small EC50, low ones a large EC50.

These data come from patent publication US7994187B2, “HIV inhibiting 3,4-dihydro-imidazo[4,5-B]pyridin-5-ones” (Tibotec Pharmaceuticals Ltd., priority 2006, dated 2011).
